Measured values: patent publication US10780074B2, “Compounds and uses thereof” (Sunovion Pharmaceuticals Inc., priority 2017, dated 2020)
Structures can show the parent of a compound that is named as a salt. Where two headings read alike, the source gives them in different places.

System: behaviors of compound-treated mice
Test: Neuropharmacological Assay (SmartCube)
Assay type: in vivo
Settings: for minimal effective dose: Mus musculus, ip, 0.25 h, dose having 50% or more total activity in SmartCube, read-out: MED (minimal effective dose)
Text: Neuropharmacological Assay (SmartCube™)
Neurosci. 2011 Sep. 9; 5:103 (doi: 10.3389/fnins.2011.00103) (“Roberds”). As reported in Roberds, because psychiatric diseases generally result from disorders of cell-cell communication or circuitry, intact systems are useful in detecting improvement in disease-relevant endpoints. These endpoints are typically behavioral in nature, often requiring human observation and interpretation. To facilitate testing of multiple compounds for behavioral effects relevant to psychiatric disease, PsychoGenics, Inc. (Tarrytown, N.Y., “PGI”) developed SmartCube™, an automated system in which behaviors of compound-treated mice are captured by digital video and analyzed with computer algorithms. (D. Brunner et al., Drug Discov. Today 2002, 7:S107-S112). PGI Analytical Systems uses data from SmartCube™ to compare the behavioral signature of a test compound to a database of behavioral signatures obtained using a large set of diverse reference compounds. (The composition of the database as well as validation of the method is further described in Roberds). In this way, the neuropharmacological effects of a test compound can be predicted by similarity to major classes of compounds, such as antipsychotics, anxiolytics and antidepressants.
The SmartCube™ system produces an activity signature indicating the probability that the activity of the test compound at the administered dose matches a given class of neuropharmacological agents. (See, e.g., Roberds, FIGS. 2 and 3). The test compound is simultaneously compared against multiple classes of agents; thus, a separate probability is generated for each behavioral effect measured (e.g., anxiolytic activity, analgesic activity, etc.). In the table below, these probabilities are reported for each behavioral effect measured as follows:
Provided compounds were dissolved in a mixture of Pharmasolve™ (N-methyl-2-pyrrolidone), polyethylene glycol and propylene glycol, and were injected i.p. 15 min. before the behavioral test. For each compound, injections were administered at 3 different doses. For each behavioral effect measured, results for the most efficacious dose(s) are presented. In the table below, DP: anti-depressant; AX: anxiolytic; SD: sedative hypnotic; PS: anti-psychotic; MS: mood stabilizer; AD: ADHD; CE: cognitive enhancer; AG: analgesic; UN: uncharacterized CNS activity.
The potency of many of the compounds in the table was also determined in the SmartCube™ system. Test compounds were routinely examined at dose levels of 0.3, 1, 3 10 and 30 mg per kg (mpk), although the dose range was increased or decreased if necessary to obtain a full dose response curve. A compound's minimal effective dose (MED) is a measure of the compounds potency. The MED was defined as the dose (in mpk) having 50% or more total activity in SmartCube.

[1] = i.p. 15 min before behavioral test, most efficacious dose(s) of 3 doses
[2] = SmartCube, i.p. 15 min before test, most efficacious dose(s)

Row | Structure (SMILES) | minimal effective dose (i.p.) | AD: ADHD (probability that activity matches class) [1] | AG: analgesic (probability that activity matches class) [1] | AX: anxiolytic (probability that activity matches class) [1] | CE: cognitive enhancer (probability that activity matches class) [1] | DP: anti-depressant (probability that activity matches class) [1] | MS: mood stabilizer (probability that activity matches class) [1] | PS: anti-psychotic (probability that activity matches class) [1] | SD: sedative hypnotic (probability that activity matches class) [1] | UN: uncharacterized CNS activity (probability that activity matches class) [1] | minimal effective dose | AD: ADHD (probability that activity matches class) [2] | AG: analgesic (probability that activity matches class) [2] | AX: anxiolytic (probability that activity matches class) [2] | CE: cognitive enhancer (probability that activity matches class) [2] | DP: anti-depressant (probability that activity matches class) [2] | MS: mood stabilizer (probability that activity matches class) [2] | PS: anti-psychotic (probability that activity matches class) [2] | SD: sedative hypnotic (probability that activity matches class) [2] | UN: uncharacterized CNS activity (probability that activity matches class) [2]
1 | CNC[C@@H]1OCCc2ccc(-c3cncnc3)cc21 (single isomer, unassigned) [Compound 26, hydrochloride] | > 30 mg/kg | + (LOQ ≤ + <5%) | + (LOQ ≤ + <5%) | + (LOQ ≤ + <5%) | + (LOQ ≤ + <5%) | + (LOQ ≤ + <5%) | + (LOQ ≤ + <5%) | + (LOQ ≤ + <5%) | + (LOQ ≤ + <5%) | + (LOQ ≤ + <5%) |  |  |  |  |  |  |  |  |  | 
2 | CNC[C@@H]1OCCc2c(-c3ccccc3)cccc21 (single isomer, unassigned) [Compound 128, hydrochloride salt] | 10 to 30 mg/kg | + (LOQ ≤ + <5%) | + (LOQ ≤ + <5%) | + (LOQ ≤ + <5%) | + (LOQ ≤ + <5%) | + (LOQ ≤ + <5%) | + (LOQ ≤ + <5%) | + (LOQ ≤ + <5%) | + (LOQ ≤ + <5%) | + (LOQ ≤ + <5%) |  |  |  |  |  |  |  |  |  | 
3 | CNC[C@@H]1OCCc2cc(-c3cccnc3)ccc21 [Compound 5, (R)-N-Methyl(6-(pyridin-3-yl)isochroman-1-yl)methanamine bis-hydrochloride] | 3 to 10 mg/kg | + (LOQ ≤ + <5%) | ++ (5% ≤ ++ <25%) | ++ (5% ≤ ++ <25%) | + (LOQ ≤ + <5%) | ++++ (50% ≤ ++++) | + (LOQ ≤ + <5%) | ++ (5% ≤ ++ <25%) | + (LOQ ≤ + <5%) | + (LOQ ≤ + <5%) |  |  |  |  |  |  |  |  |  | 
4 | CNC[C@H]1OCCc2c(-c3cocn3)cccc21 [Compound 103, (S)—N-methyl-1-(5-(oxazol-4-yl)isochroman-1-yl)methanamine HCl salt] | ≤ 3 mg/kg | ++ (5% ≤ ++ <25%) | + (LOQ ≤ + <5%) | ++ (5% ≤ ++ <25%) | + (LOQ ≤ + <5%) | ++++ (50% ≤ ++++) | + (LOQ ≤ + <5%) | + (LOQ ≤ + <5%) | + (LOQ ≤ + <5%) | + (LOQ ≤ + <5%) |  |  |  |  |  |  |  |  |  | 
5 | NCC1OCCc2c(-c3ccnnc3)cccc21 (centres unmarked) [Compound 61, (5-(Pyridazin-4-yl)isochroman-1-yl)methanamine hydrochloride salt] | 10 to 30 mg/kg | + (LOQ ≤ + <5%) | + (LOQ ≤ + <5%) | ++ (5% ≤ ++ <25%) | + (LOQ ≤ + <5%) | ++ (5% ≤ ++ <25%) | + (LOQ ≤ + <5%) | + (LOQ ≤ + <5%) | + (LOQ ≤ + <5%) | ++++ (50% ≤ ++++) |  |  |  |  |  |  |  |  |  | 
6 | CNC[C@@H]1OCCc2ccc(-c3cccnc3)cc21 (single isomer, unassigned) [Compound 3, dihydrochloride] | 3 to 10 mg/kg | + (LOQ ≤ + <5%) | ++ (5% ≤ ++ <25%) | ++ (5% ≤ ++ <25%) | ++ (5% ≤ ++ <25%) | ++ (5% ≤ ++ <25%) | ++ (5% ≤ ++ <25%) | ++ (5% ≤ ++ <25%) | + (LOQ ≤ + <5%) | ++ (5% ≤ ++ <25%) |  |  |  |  |  |  |  |  |  | 
7 | NC[C@H]1OCCc2c(-c3cccnc3)cccc21 [Compound 16, (S)-(5-(Pyridin-3-yl)isochroman-1-yl)methanamine hydrochloride] | ≤ 3 mg/kg | + (LOQ ≤ + <5%) | + (LOQ ≤ + <5%) | ++ (5% ≤ ++ <25%) | ++ (5% ≤ ++ <25%) | ++++ (50% ≤ ++++) | + (LOQ ≤ + <5%) | + (LOQ ≤ + <5%) | + (LOQ ≤ + <5%) | + (LOQ ≤ + <5%) |  |  |  |  |  |  |  |  |  | 
8 | CNC[C@H]1OCCCc2c(-c3cncs3)cccc21 (single isomer, unassigned) [Compound 169, hydrochloride salt] | 10 to 30 mg/kg | + (LOQ ≤ + <5%) | + (LOQ ≤ + <5%) | + (LOQ ≤ + <5%) | + (LOQ ≤ + <5%) | + (LOQ ≤ + <5%) | + (LOQ ≤ + <5%) | + (LOQ ≤ + <5%) | + (LOQ ≤ + <5%) | + (LOQ ≤ + <5%) |  |  |  |  |  |  |  |  |  | 
9 | CNC[C@@H]1OCCc2c(-c3cnoc3)cccc21 (single isomer, unassigned) [Compound 84, hydrochloride salt] | 3 to 10 mg/kg | ++ (5% ≤ ++ <25%) | + (LOQ ≤ + <5%) | ++ (5% ≤ ++ <25%) | ++ (5% ≤ ++ <25%) | ++ (5% ≤ ++ <25%) | + (LOQ ≤ + <5%) | + (LOQ ≤ + <5%) | + (LOQ ≤ + <5%) | ++ (5% ≤ ++ <25%) |  |  |  |  |  |  |  |  |  | 
10 | NC[C@H]1OCCc2c1cccc2-n1cccn1 [Compound 189, (S)-(5-(1H-pyrazol-1-yl)isochroman-1-yl)methanamine hydrochloride salt] |  |  |  |  |  |  |  |  |  |  | 10 to 30 mg/kg | ++ (5% ≤ ++ <25%) | + (LOQ ≤ + <5%) | ++ (5% ≤ ++ <25%) | + (LOQ ≤ + <5%) | ++ (5% ≤ ++ <25%) | + (LOQ ≤ + <5%) | + (LOQ ≤ + <5%) | + (LOQ ≤ + <5%) | ++++ (50% ≤ ++++)
11 | CNC[C@@H]1OCCc2c(-c3ncco3)cccc21 [Compound 104, (R)—N-Methyl-1-(5-(oxazol-2-yl)isochroman-1-yl)methanamine hydrochloride salt] | > 30 mg/kg | + (LOQ ≤ + <5%) | + (LOQ ≤ + <5%) | ++ (5% ≤ ++ <25%) | + (LOQ ≤ + <5%) | ++ (5% ≤ ++ <25%) | + (LOQ ≤ + <5%) | + (LOQ ≤ + <5%) | + (LOQ ≤ + <5%) | + (LOQ ≤ + <5%) |  |  |  |  |  |  |  |  |  | 
